Reference: US10597388B2, “Pyridazinone herbicides” (FMC CORPORATION, priority 2014, dated 2020)

Tests used:
Test in all cases: Test D controlled growth environment herbicide test, pre- and postemergence
Format in all cases: in vivo
[1] = test system: Russian thistle (Salsola kali)
Method in brief: (§1)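 Rating is visual, 0–100 scale (100 = complete control), made against untreated plants 14–21 d after treatment in controlled growth conditions. Postemergence sprays went onto 1- to 4-leaf plants in peat medium; preemergence sprays onto silt loam after sowing; formulation included a surfactant.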

[2] = test system: barley, winter (winter barley, Hordeum vulgare)
Method in brief: as §1

[3] = test system: bromegrass, downy (downy bromegrass, Bromus tectorum)
Method in brief: as §1

[4] = test system: chickweed (common chickweed, Stellaria media)
Method in brief: as §1

[5] = test system: deadnettle (henbit deadnettle, Lamium amplexicaule)
Method in brief: as §1

[6] = test system: field poppy (Papaver rhoeas)
Method in brief: as §1

[7] = test system: galium (catchweed bedstraw, Galium aparine)
Method in brief: as §1

kochia (Kochia scoparia) = test system: kochia (Kochia scoparia)
Method in brief: as §1

[8] = test system: lambsquarters (Chenopodium album)
Method in brief: as §1

[9] = test system: mustard, wild (wild mustard, Sinapis arvensis)
Method in brief: as §1

[10] = test system: speedwell (bird's-eye speedwell, Veronica persica)
Method in brief: as §1

[11] = test system: wheat, winter (winter wheat, Triticum aestivum)
Method in brief: as §1

[12] = test system: windgrass (Apera spica-venti)
Method in brief: as §1

[13] = Postemergence, 31 g ai/ha, scale 0 to 100 (0 no effect, 100 complete control)
[14] = Postemergence, 125 g ai/ha, visual rating on scale 0 (no effect) to 100 (complete control), 14 to 21 d
[15] = Postemergence, 250 g ai/ha, scale 0 to 100 (0 no effect, 100 complete control)
[16] = Preemergence, 125 g ai/ha, scale 0 to 100 (0 no effect, 100 complete control)
[17] = Preemergence, 250 g ai/ha, scale 0 to 100 (0 no effect, 100 complete control)
[18] = postemergence, 62 g ai/ha, scale 0 to 100, 0 no effect, 100 complete control
[19] = Preemergence, 62 g ai/ha, scale 0 to 100 (0 no effect, 100 complete control)

CCC(=O)Oc1c(C)nn(C)c(=O)c1-c1c(C)sc2ccc(Cl)cc12 [Compound 109]
Russian Thistle plant response rating [1, 13]: 60
Plant response rating, Russian Thistle [1, 14]: 75
Plant response rating, Russian Thistle [1, 15]: 90
Plant response rating (scale of 0 to 100), Russian Thistle ([1]; Preemergence, 31 g ai/ha): 0
Plant response rating (scale of 0 to 100), Russian Thistle ([1]; Preemergence, 62 g ai/ha): 20
Plant response rating, Russian Thistle [1, 16]: 35
Plant response rating, Russian Thistle [1, 17]: 50
Plant response rating, Russian Thistle [1, 18]: 75
Barley, Winter plant response rating [2, 13]: 5
Plant response rating, Barley, Winter [2, 14]: 5
Plant response rating, Barley, Winter [2, 15]: 20
Plant response rating (scale of 0 to 100), Barley, Winter ([2]; Preemergence, 31 g ai/ha): 0
Plant response rating, Barley, Winter [2, 19]: 0
Plant response rating, Barley, Winter [2, 16]: 0
Plant response rating, Barley, Winter [2, 17]: 10
Plant response rating, Barley, Winter [2, 18]: 0
Bromegrass, Downy plant response rating [3, 13]: 30
Plant response rating, Bromegrass, Downy [3, 14]: 60
Plant response rating, Bromegrass, Downy [3, 15]: 75
Plant response rating (scale of 0 to 100), Bromegrass, Downy ([3]; Preemergence, 31 g ai/ha): 0
Plant response rating, Bromegrass, Downy [3, 19]: 30
Plant response rating, Bromegrass, Downy [3, 16]: 65
Plant response rating, Bromegrass, Downy [3, 17]: 65
Plant response rating, Bromegrass, Downy [3, 18]: 30
Chickweed plant response rating [4, 13]: 100
Plant response rating, Chickweed [4, 14]: 100
Plant response rating, Chickweed [4, 15]: 100
Plant response rating (scale of 0 to 100), Chickweed ([4]; Preemergence, 31 g ai/ha): 100
Plant response rating (scale of 0 to 100), Chickweed ([4]; Preemergence, 62 g ai/ha): 100
Plant response rating, Chickweed [4, 16]: 100
Plant response rating, Chickweed [4, 17]: 100
Plant response rating, Chickweed [4, 18]: 100
Deadnettle plant response rating [5, 13]: 20
Plant response rating, Deadnettle [5, 14]: 70
Plant response rating, Deadnettle [5, 15]: 95
Plant response rating (scale of 0 to 100), Deadnettle ([5]; Preemergence, 31 g ai/ha): 0
Plant response rating (scale of 0 to 100), Deadnettle ([5]; Preemergence, 62 g ai/ha): 60
Plant response rating, Deadnettle [5, 16]: 80
Plant response rating, Deadnettle [5, 17]: 95
Plant response rating, Deadnettle [5, 18]: 50
Field Poppy plant response rating [6, 13]: 45
Plant response rating, Field Poppy [6, 14]: 75
Plant response rating, Field Poppy [6, 15]: 85
Plant response rating (scale of 0 to 100), Field Poppy ([6]; Preemergence, 31 g ai/ha): 100
Plant response rating (scale of 0 to 100), Field Poppy ([6]; Preemergence, 62 g ai/ha): 100
Plant response rating, Field Poppy [6, 16]: 100
Plant response rating, Field Poppy [6, 17]: 100
Plant response rating, Field Poppy [6, 18]: 50
Galium plant response rating [7, 13]: 100
Plant response rating, Galium [7, 14]: 100
Plant response rating, Galium [7, 15]: 100
Plant response rating (scale of 0 to 100), Galium ([7]; Preemergence, 31 g ai/ha): 40
Plant response rating (scale of 0 to 100), Galium ([7]; Preemergence, 62 g ai/ha): 75
Plant response rating, Galium [7, 16]: 100
Plant response rating, Galium [7, 17]: 100
Plant response rating, Galium [7, 18]: 100
Kochia plant response rating (kochia (Kochia scoparia); [13]): 95
Plant response rating, Kochia (kochia (Kochia scoparia); [14]): 100
Plant response rating, Kochia (kochia (Kochia scoparia); [15]): 100
Plant response rating (scale of 0 to 100), Kochia (kochia (Kochia scoparia); Preemergence, 31 g ai/ha): 20
Plant response rating (scale of 0 to 100), Kochia (kochia (Kochia scoparia); Preemergence, 62 g ai/ha): 70
Plant response rating, Kochia (kochia (Kochia scoparia); [16]): 80
Plant response rating, Kochia (kochia (Kochia scoparia); [17]): 100
Plant response rating, Kochia (kochia (Kochia scoparia); [18]): 100
Lambsquarters plant response rating [8, 13]: 90
Plant response rating, Lambsquarters [8, 14]: 95
Plant response rating, Lambsquarters [8, 15]: 100
Plant response rating (scale of 0 to 100), Lambsquarters ([8]; Preemergence, 31 g ai/ha): 95
Plant response rating (scale of 0 to 100), Lambsquarters ([8]; Preemergence, 62 g ai/ha): 100
Plant response rating, Lambsquarters [8, 16]: 100
Plant response rating, Lambsquarters [8, 17]: 100
Plant response rating, Lambsquarters [8, 18]: 95
Mustard, Wild plant response rating [9, 13]: 60
Plant response rating, Mustard, Wild [9, 14]: 90
Plant response rating, Mustard, Wild [9, 15]: 100
Plant response rating (scale of 0 to 100), Mustard, Wild ([9]; Preemergence, 31 g ai/ha): 5
Plant response rating (scale of 0 to 100), Mustard, Wild ([9]; Preemergence, 62 g ai/ha): 75
Plant response rating, Mustard, Wild [9, 16]: 100
Plant response rating, Mustard, Wild [9, 17]: 100
Plant response rating, Mustard, Wild [9, 18]: 85
Speedwell plant response rating [10, 13]: 50
Plant response rating, Speedwell [10, 14]: 75
Plant response rating, Speedwell [10, 15]: 100
Plant response rating, Speedwell [10, 18]: 60
Wheat, Winter plant response rating [11, 13]: 10
Plant response rating, Wheat, Winter [11, 14]: 25
Plant response rating, Wheat, Winter [11, 15]: 35
Plant response rating (scale of 0 to 100), Wheat, Winter ([11]; Preemergence, 31 g ai/ha): 0
Plant response rating (scale of 0 to 100), Wheat, Winter ([11]; Preemergence, 62 g ai/ha): 0
Plant response rating, Wheat, Winter [11, 16]: 5
Plant response rating, Wheat, Winter [11, 17]: 20
Plant response rating, Wheat, Winter [11, 18]: 15
Windgrass plant response rating [12, 13]: 60
Plant response rating, Windgrass [12, 14]: 80
Plant response rating, Windgrass [12, 15]: 90
Plant response rating (scale of 0 to 100), Windgrass ([12]; Preemergence, 31 g ai/ha): 55
Plant response rating (scale of 0 to 100), Windgrass ([12]; Preemergence, 62 g ai/ha): 60
Plant response rating, Windgrass [12, 16]: 80
Plant response rating, Windgrass [12, 17]: 100
Plant response rating, Windgrass [12, 18]: 65
